Experimental findings from patent US9505749B2, “Quinazolinone compounds and derivatives thereof” (AMGEN INC., priority 2012, dated 2016) are described below.

pEC50, pIC50: −log10 of the molar value. Like-named read-outs stand apart in the source and are kept apart here. A value given as a limit tells only on which side of the number the result lay.

For test [1], the system named is 8×TCF promoter-driven Firefly luciferase (Wnt reporter) in DLD-1 colorectal cells. As to the kind of experiment: DLD-1-STF assay, constitutively activated Wnt pathway reporter. In kind it is cell-based. As to conditions: Homo sapiens. Here is the method: DLD-1 colorectal cells engineered with an 8×TCF promoter-driven Firefly (FF) luciferase gene (Wnt reporter) along with an EF1a promoter-driven Renilla (RN) luciferase gene (control reporter) were used to measure the potency of tankyrase compounds in the context of the constitutively activated Wnt pathway due to mutated APC in colorectal cancer cells. The engineered DLD-1 cells were plated (45 μL) at a density of 10,000 cells/well in black, clear-bottom, 96-well View plates (PerkinElmer) in normal growth medium (RPMI with 10% FBS with no antibiotics). Tankyrase inhibitors (5 μL) were transferred to cells from a three-fold serially diluted compound plate. A 10-point dilution series was tested starting at a concentration (10 μM final concentration in assay). Column 6 contained only DMSO and served as the “HI” control. A potent Tankyrase inhibitor was used at a final concentration of 10 uM in column 12 which served as the “LO” control. […] The Dual-Glo Reagents (Promega) were added as directed by manufacturer to assay the FF and RN luciferase activity. Luciferase activity was measures using the EnVision multilabel plate reader (PerkinElmer).

Test [2] has as its system total β-catenin in SW480 colorectal cells. As to the kind of experiment: Total β-catenin MSD 96-well plate assay for SW480 cells. As to conditions: Homo sapiens, SW480, read-out: SW480-Total beta-catenin (TBC) IC50 IP.
The subject of test [3] is Axin2 accumulation in SW480 cells. Nature of the test: Axin2 384 immunofluorescence assay. As to conditions: Homo sapiens, read-out: Axin2 384 IF EC50. It is filed as cell-based.
The target in the next test is PARP2 (Homo sapiens (Human), UniProt Q9UGN5). Nature of the test: PARP2 biochemical assay (BPS kit).
In a further test the target is PARP1 (Homo sapiens (Human), UniProt P09874). Nature of the test: PARP1 biochemical assay (Trevigen kit). The text has this: PARP1 biochemical assay was purchased as a kit from Trevigen (cat.#4676-096-K) and used per manufacturers recommendations.
Test [4] deals with 6×HIS-tankyrase 2 (946-1162) (Homo sapiens (Human), UniProt Q9H2K2). Nature of the test: Tankyrase 2 biochemical assay (AlphaLisa, PARsylation). The following applies: 250 nM NAD; read-out: TNKS2 IC50.
For test [5], the target named is 6×HIS-tankyrase1 (1091-1325) (Homo sapiens (Human), UniProt O95271). As to the kind of experiment: Tankyrase 1 biochemical assay (AlphaLisa, PARsylation). As to conditions: 400 nM NAD, 60 minutes at RT; read-out: TNKS1 IC50. A general note: Bead proximity is the source of the signal in Alpha formats.
[6] abbreviates: DLD-1, read-out: DLD1-STF-FF/RL*100 IC50.

PARP2, sequence (Q9UGN5 whole entry): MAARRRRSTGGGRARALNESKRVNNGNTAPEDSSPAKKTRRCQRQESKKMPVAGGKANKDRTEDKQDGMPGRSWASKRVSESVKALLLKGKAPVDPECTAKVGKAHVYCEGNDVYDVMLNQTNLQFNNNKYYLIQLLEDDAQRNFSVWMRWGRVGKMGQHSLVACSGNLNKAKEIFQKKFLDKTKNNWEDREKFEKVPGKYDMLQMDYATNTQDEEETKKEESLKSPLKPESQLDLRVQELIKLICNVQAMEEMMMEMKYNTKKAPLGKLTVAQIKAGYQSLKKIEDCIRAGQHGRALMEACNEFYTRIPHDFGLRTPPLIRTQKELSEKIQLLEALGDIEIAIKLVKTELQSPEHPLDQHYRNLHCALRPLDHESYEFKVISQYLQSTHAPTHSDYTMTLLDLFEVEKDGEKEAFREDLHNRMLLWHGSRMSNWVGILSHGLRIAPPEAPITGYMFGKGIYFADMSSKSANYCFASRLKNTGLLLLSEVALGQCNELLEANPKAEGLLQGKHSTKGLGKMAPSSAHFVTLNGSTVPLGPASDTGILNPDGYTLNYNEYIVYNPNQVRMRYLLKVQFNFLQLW
PARP1, sequence (P09874 whole entry): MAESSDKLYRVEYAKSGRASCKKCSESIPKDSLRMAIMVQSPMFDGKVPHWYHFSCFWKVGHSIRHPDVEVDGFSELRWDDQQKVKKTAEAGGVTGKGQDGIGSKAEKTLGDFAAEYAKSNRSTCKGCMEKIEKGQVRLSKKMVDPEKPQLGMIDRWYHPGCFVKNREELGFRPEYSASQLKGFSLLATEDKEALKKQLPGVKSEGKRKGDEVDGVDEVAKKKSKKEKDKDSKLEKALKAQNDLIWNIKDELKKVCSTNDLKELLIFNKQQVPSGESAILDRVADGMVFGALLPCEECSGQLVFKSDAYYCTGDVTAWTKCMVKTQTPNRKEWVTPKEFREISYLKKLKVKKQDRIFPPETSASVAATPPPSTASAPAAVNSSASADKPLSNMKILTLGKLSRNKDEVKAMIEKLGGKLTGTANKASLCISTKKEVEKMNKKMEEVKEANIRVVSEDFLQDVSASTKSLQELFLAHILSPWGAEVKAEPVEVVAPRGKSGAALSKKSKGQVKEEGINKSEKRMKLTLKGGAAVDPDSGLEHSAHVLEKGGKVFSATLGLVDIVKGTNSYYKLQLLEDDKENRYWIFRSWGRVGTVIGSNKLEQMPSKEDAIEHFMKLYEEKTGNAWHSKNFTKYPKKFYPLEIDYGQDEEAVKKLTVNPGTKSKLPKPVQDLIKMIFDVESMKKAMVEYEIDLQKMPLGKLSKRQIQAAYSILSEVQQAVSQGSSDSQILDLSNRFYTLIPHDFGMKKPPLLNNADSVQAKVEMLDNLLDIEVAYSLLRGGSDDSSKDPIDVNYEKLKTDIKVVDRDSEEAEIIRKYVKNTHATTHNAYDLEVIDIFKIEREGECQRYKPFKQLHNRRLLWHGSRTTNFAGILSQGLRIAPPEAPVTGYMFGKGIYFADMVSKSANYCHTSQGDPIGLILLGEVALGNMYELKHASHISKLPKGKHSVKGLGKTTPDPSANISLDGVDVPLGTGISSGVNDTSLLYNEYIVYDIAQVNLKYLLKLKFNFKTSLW
6×HIS-tankyrase1 (1091-1325), sequence (O95271 1091-1325): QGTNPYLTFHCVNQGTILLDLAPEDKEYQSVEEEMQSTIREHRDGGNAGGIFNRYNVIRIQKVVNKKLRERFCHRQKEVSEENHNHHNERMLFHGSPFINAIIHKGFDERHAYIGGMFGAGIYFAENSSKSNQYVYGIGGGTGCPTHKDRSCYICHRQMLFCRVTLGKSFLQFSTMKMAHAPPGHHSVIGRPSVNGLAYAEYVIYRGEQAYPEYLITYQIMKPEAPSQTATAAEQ
6×HIS-tankyrase 2 (946-1162), sequence (Q9H2K2 946-1162): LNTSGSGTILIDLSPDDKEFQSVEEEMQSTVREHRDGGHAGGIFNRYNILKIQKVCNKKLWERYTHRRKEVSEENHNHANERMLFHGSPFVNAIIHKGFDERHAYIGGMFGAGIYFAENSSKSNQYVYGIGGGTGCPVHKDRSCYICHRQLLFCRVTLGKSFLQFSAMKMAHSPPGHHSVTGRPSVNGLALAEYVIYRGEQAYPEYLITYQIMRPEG

Consider `O=C(CCCc1nc2ccccc2c(=O)[nH]1)N[C@H]1CC[C@H](n2c(=O)[nH]c3cc(Cl)ccc32)CC1` [Example 74, N-((1r,4r)-4-(5-chloro-2-oxo-2,3-dihydro-1H-benzo[d]imidazol-1-yl)cyclohexyl)-4-(4-oxo-3,4-dihydroquinazolin-2-yl)butanamide trifluoroacetic acid], for which the pIC50 was 8.80 in test [1] (DLD-1 cells, 40 to 48 hours, read-out: DLD1-STF-FF/RL*100 IC50) and 8.18 in test [2]. Also, the pEC50 (usually the EC50 on a negative log10 scale, so that one unit is a factor of ten) in test [3] (SW480, 24 h) was 8.27.
As for `O=C(CCSc1nc2ccccc2c(=O)[nH]1)N[C@H]1CC[C@H](c2nnc(-c3ccccc3)o2)CC1` [Example 97, 3-((4-oxo-3,4-dihydroquinazolin-2-yl)thio)-N-(trans-4-(5-phenyl-1,3,4-oxadiazol-2-yl)cyclohexyl)propanamide], the pIC50 in test [1] (setting [6]) was 9.22; against PARP2, 5.61; in test [2], 8.43. In addition, in test [3] (SW480 cells, 24 hours), the pEC50 was 8.41.
`N#Cc1ccc(O[C@H]2CC[C@H](NC(=O)CCSc3nc4ccccc4c(=O)[nH]3)CC2)cc1` [Example 106, N-(trans-4-(4-cyanophenoxy)cyclohexyl)-3-((4-oxo-3,4-dihydroquinazolin-2-yl)thio) propanamide]: the pIC50 in test [1] (setting [6]) was 9.56; against PARP2, 5.75; in test [2], 8.72. The pEC50 in test [3] (SW480 cells, 24 hours) is 8.40.
For the compound `O=C(CCSc1nc2ccccc2c(=O)[nH]1)N[C@H]1CC[C@H](Oc2ccccn2)CC1` [Example 107, 3-((4-oxo-3,4-dihydroquinazolin-2-yl)thio)-N-((1 r,4r)-4-(pyridin-2-yloxy)cyclohexyl) propanamide], the pIC50 was 8.88 in test [1] (setting [6]), 5.47 on PARP2, less than 4.07 at PARP1 and 7.81 in test [2]. In test [3] (SW480 cells, 24 hours), the negative logarithm of the EC50 (pEC50) was 7.78.
As for `O=C(CCSc1nc2ccccc2c(=O)[nH]1)N[C@H]1CC[C@H](Oc2ccncc2)CC1` [Example 108, 3-((4-oxo-3,4-dihydroquinazolin-2-yl)thio)-N-((1 r,4r)-4-(pyridin-4-yloxy)cyclohexyl) propanamide], the pIC50 in test [1] (setting [6]) is 9.17; against PARP2, 5.49; on PARP1 it was 5.56; in test [2], 8.16. Also, the pEC50 in test [3] (SW480 cells, 24 hours) is 8.17.
For the compound `O=C(CCSc1nc2ccccc2c(=O)[nH]1)N[C@H]1CC[C@H](Oc2cccc(Cl)c2)CC1` [Example 112, N-((1r,4r)-4-(3-chlorophenoxy)cyclohexyl)-3-((4-oxo-3,4-dihydroquinazolin-2-yl)thio) propanamide], the pIC50 was less than 7.30 in test [1] (setting [6]), less than 4.07 at PARP1 and 6.92 in test [2]. For the same compound, in test [3] (SW480 cells, 24 hours), the pEC50 was 6.98.
As for `N#Cc1cc(O[C@H]2CC[C@H](NC(=O)CCSc3nc4ccccc4c(=O)[nH]3)CC2)ccc1Cl` [Example 113, N-((1r,4r)-4-(4-chloro-3-cyanophenoxy)cyclohexyl)-3-((4-oxo-3,4-dihydroquinazolin-2-yl)thio)propanamide], the figures for the pIC50 (in test [1] (setting [6]); at PARP1; in test [2]) were less than 7.30, less than 4.07 and 7.62, respectively. Moreover, the pEC50 in test [3] (SW480 cells, 24 hours) is 7.25.
The corresponding values for `N#Cc1ccc(O[C@H]2CC[C@H](NC(=O)CCSc3nc4ccccc4c(=O)[nH]3)CC2)cc1Cl` [Example 114, N-((1r,4r)-4-(3-chloro-4-cyanophenoxy)cyclohexyl)-3-((4-oxo-3,4-dihydroquinazolin-2-yl)thio)propanamide] are 8.97, less than 4.07, 8.09 and 8.07.
Regarding `O=C(CCSc1nc2ccccc2c(=O)[nH]1)N[C@H]1CC[C@H](c2nnc(-c3ccc(F)c(Cl)c3)o2)CC1` [Example 122, N-((1r,4r)-4-(5-(3-chloro-4-fluorophenyl)-1,3,4-oxadiazol-2-yl)cyclohexyl)-3-((4-oxo-3,4-dihydroquinazolin-2-yl)thio)propanamide], the pIC50 at PARP2 was 5.11; in test [4] it was 8.86; in test [5] it was 9.82; against PARP1, less than 5.03; in test [2], 8.52. Moreover, the pEC50 in test [3] (SW480 cells, 24 hours) was 8.35.
